Assays:
[1] = test system: isolated ileum of guinea-pig; test: Test for antihistaminergic effects on the isolated ileum of guinea-pig (histamine contraction, in vitro); set-up: species or system guinea-pig (male Hartly-strain); settings: Cavia porcellus, 0.05 h; depressing ratio of 80% or more of histamine contraction; read-out: Antihistaminergic activity: MED
Method in brief: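 Ileum segments from male Hartley guinea-pigs (~250 g) suspended in Tyrode's solution at 32±1 °C, contractions recorded on kymograph. Test compound given 3 min before agonist challenge with 0.1 ml histamine at 5×10^-3 g/l.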

Antiasthmatic activity = assay type: in vivo; settings: po; read-out: Antiasthmatic activity: MED
male dd-strain rats = test: Acute toxicity test (minimum lethal dose); assay type: in vivo; settings: mortality for 7 days
Description: Groups of male dd-strain rats (each group consisting of five rats) weighing 20±1 g were used. The compounds of the present invention were administered orally (po: 0.3 mg/g) or intraperitoneally (ip: 0.1 mg/g). The MLD (minimum lethal dose) was calculated from the mortality for 7 days after the administration to obtain the results given in Table 1.

[2] = test system: isolated ileum of guinea-pig; test: Test for anticholinergic effects on the isolated ileum of guinea-pig (acetylcholine contraction, in vitro); set-up: species or system guinea-pig (male Hartly-strain); settings: Cavia porcellus, 0.05 h; depressing ratio of 80% or more of acetylcholine contraction; compound 3 minutes before; read-out: Anticholinergic activity: MED (minimum effective dose)
Method in brief: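 Ileum segments from male Hartley guinea-pigs (~250 g), 2-3 cm, in Tyrode's at 32±1° C, aerated. Contraction evoked by acetylcholine (0.1 ml of 10^-3 g/ml), recorded by kymograph, before and 3 minutes after test compound addition.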

[3] = test system: blood platelets (platelet-rich plasma); test: Test for the inhibition of platelet aggregation (collagen-induced, platelet-rich plasma); assay type: cell-based, male white rabbits; settings: Oryctolagus cuniculus, Platelet, 0.05 h; depressing ratio of 50% of collagen-induced aggregation; compound 3 minutes before; read-out: Antiplatelet aggregation activity: MED
Method in brief: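 Citrated carotid blood from male white rabbits (2–2.5 kg) spun at 1,000 rpm for 15 min to give PRP. Compound added 3 min before collagen, dosed to give 50% aggregation in the presence of 100 γ/ml aspirin; aggregation followed by aggregometer, activity scored as 50% depression versus collagen alone.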

SMILES	minimal effective concentration [1]	minimal effective dose (Antiasthmatic activity)	Acute toxicity: MLD (minimum lethal dose) (male dd-strain rats; ip)	Acute toxicity: MLD (minimum lethal dose) (male dd-strain rats; po)	minimal effective concentration [2]	minimal effective concentration [3]
Cc1ccc2c(c1)C(NCCN(C)C)c1ccccc1CO2 (stereo not drawn) [Compound 16, 2-methyl-11-{2-(dimethylamino)ethyl}amino-6,11-dihydrodibenz[b,e]oxepin]	10 µg/mL	25 mg/kg	> 100 mg/kg	300 mg/kg	3 µg/mL	50 µg/mL
CCC(C)c1ccc2c(c1)C(NCCN(CC)CC)c1ccccc1CO2 (stereo not drawn) [Compound 11, 2-(1-methyl) propyl-11-{2-(diethylamino)ethyl}amino-6,11-dihydrodibenz[b,e]oxepin]	0.3 µg/mL	100 mg/kg	100 mg/kg	> 300 mg/kg	0.03 µg/mL	10 µg/mL
COc1ccc2c(c1)C(N1CCN(C)CC1)c1ccccc1CO2 (stereo not drawn) [Compound 68, 2-methoxy-11-(4-methyl-1-piperazinyl)-6,11-dihydrodibenz[b,e]oxepin]	3 µg/mL	100 mg/kg	100 mg/kg	200 mg/kg	10 µg/mL	100 µg/mL
CCc1ccc2c(c1)C(NCCN(CC)CC)c1ccccc1CO2 (stereo not drawn) [Compound 1, 2-ethyl-11-{2-(diethylamino)ethyl}amino-6,11-dihydrodibenz[b,e]oxepin]	1 µg/mL	50 mg/kg	> 100 mg/kg	> 300 mg/kg	1 µg/mL	20 µg/mL
CN(C)CCNC1c2ccccc2COc2ccc(F)cc21 (stereo not drawn) [Compound 18, 2-fluoro-11-{2-(dimethylamino)ethyl}amino-6,11-dihydrodibenz[b,e]oxepin]	0.3 µg/mL	10 mg/kg	> 100 mg/kg	> 300 mg/kg	0.3 µg/mL	50 µg/mL
CCc1ccc2c(c1)C(N1CCN(CCO)CC1)c1ccccc1CO2 (stereo not drawn) [Compound 38, 2-ethyl-11-{4-(2-hydroxyethyl)-1-piperazinyl}-6,11-dihydrodibenz[b,e]oxepin]	1 µg/mL	100 mg/kg	> 100 mg/kg	> 300 mg/kg	1 µg/mL	100 µg/mL
CCc1ccc2c(c1)C(NC1CN3CCC1CC3)c1ccccc1CO2 (stereo not drawn) [Compound 21, 2-ethyl-11-(3-quinuclidinyl)amino-6,11-dihydrodibenz[b,e]oxepin]	0.1 µg/mL	25 mg/kg	100 mg/kg	300 mg/kg	0.1 µg/mL	50 µg/mL
CCc1ccc2c(c1)C(NCCN1CCCCC1)c1ccccc1CO2 (stereo not drawn) [Compound 35, 2-ethyl-11-(2-piperidinoethyl)amino-6,11-dihydrodibenz[b,e]oxepin]	1 µg/mL	25 mg/kg	> 100 mg/kg	300 mg/kg	3 µg/mL	20 µg/mL
COc1ccc2c(c1)C(NC1CN3CCC1CC3)c1ccccc1CO2 (stereo not drawn) [Compound 24, 2-methoxy-11-(3-quinuclidinyl)amino-6,11-dihydrodibenz[b,e]oxepin]	0.1 µg/mL	50 mg/kg	100 mg/kg	200 mg/kg	0.3 µg/mL	100 µg/mL
